Earlier results on one molecule are cited in patent publication US20170273935A1, “CINEOLE-CONTAINING COMPOSITION FOR NASAL APPLICATION” (Maria Clementine Martin Klosterfrau Vertriebsgesellschaft …, priority 2014, published 2017).

For `CC12CCC(CC1)C(C)(C)O2` [1,8-cineole, 1,3,3-trimethyl-2-oxabicyclo[2.2.2]octane], the solubility in water result is “insoluble in water”.
